Results reported in PubChem BioAssay (NCI).
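Growth conditions: 96-well plates. Treatment: test compound, 48 hours, 5 concentrations. Analysis: linear interpolation between bracketing concentrations; unreached endpoints set to highest concentration. GI50 is the concentration that inhibits growth by half. The concentration for full growth arrest is given as TGI.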 Where a SMILES comes first, the peptide text is derived from it. [ ]: non-standard residue; d: D form. The star is where a group is joined. ξ: configuration not given here. Propanoyl(3-(4-MeO-Ph)) = COc1ccc(CCC(=O)*)cc1; Thr(3ξ) = CC(O)[C@H](N)C(=O)O; dNMeL = CN[C@H](CC(C)C)C(=O)O; pGlu = O=C1CC[CH](C(=O)O)N1; ξLac = CC(O)C(=O)O

Assays:
Test in all cases: growth of human tumour cells (NCI), 48 h
BT-549 breast = tested on: BT-549 breast
EKVX NSCLC = tested on: EKVX NSCLC
HOP-92 NSCLC = tested on: HOP-92 NSCLC
HS 578T breast = tested on: HS 578T breast
LOX IMVI melanoma = tested on: LOX IMVI melanoma
NCI-H460 lung = tested on: NCI-H460 lung
PC-3 prostate = tested on: PC-3 prostate
RPMI-8226 leukemia = tested on: RPMI-8226 leukemia
SK-MEL-2 melanoma = tested on: SK-MEL-2 melanoma
SK-MEL-5 melanoma = tested on: SK-MEL-5 melanoma

SMILES | TGI (BT-549 breast) [µM] | TGI (EKVX NSCLC) [µM] | TGI (HOP-92 NSCLC) [µM] | TGI (HS 578T breast) [µM] | TGI (LOX IMVI melanoma) [µM] | TGI (NCI-H460 lung) [µM] | TGI (PC-3 prostate) [µM] | TGI (RPMI-8226 leukemia) [µM] | TGI (SK-MEL-2 melanoma) [µM] | TGI (SK-MEL-5 melanoma) [µM] | GI50 (HOP-92 NSCLC) [nM] | GI50 (HS 578T breast) [µM] | GI50 (LOX IMVI melanoma) [µM] | GI50 (RPMI-8226 leukemia) [µM]
CCOC(=O)C1C[C@H]2CO[C@H](c3ccccc3)N2C1=O (some centres not stated) | > 100 | > 100 | > 100 | > 100 | > 100 | > 100 | > 100 | > 100 | > 100 | > 100 | – | – | – | –
C=CCCC(On1c(-c2ccc(Cl)cc2)csc1=S)c1ccccc1 (configuration not stated) | > 100 | > 100 | > 100 | > 100 | > 100 | – | > 100 | > 100 | > 100 | 64.8 | – | – | – | –
CCOC(=O)Cn1nnc2cc(Nc3nc4ccccc4nc3C(=O)OCC)ccc21 | > 100 | > 100 | 50 | > 100 | > 100 | > 100 | > 100 | > 100 | > 100 | > 100 | – | – | – | –
NC(=O)c1ncn2c(=O)n(CCl)nnc12 | > 100 | > 100 | > 100 | > 100 | > 100 | > 100 | > 100 | > 100 | > 100 | > 100 | – | – | – | –
CCCCC1(N=[N+]=[N-])C(=O)C2C=CC=C3c4ccccc4N(C1=O)C32 (configuration not stated) | > 31.6 | > 31.6 | > 10 | 26 | > 31.6 | > 31.6 | > 31.6 | > 31.6 | 21.5 | > 31.6 | – | – | – | –
COc1ccc(-c2nnc(-c3ccncc3)o2)cc1 | > 100 | > 100 | > 100 | > 100 | > 100 | – | > 100 | > 100 | > 100 | > 100 | – | – | – | –
CC(NC(=O)C(Cc1cnc[nH]1)NC(=O)C1CCC(=O)N1)C(N)=O (stereo not drawn) ([pGlu]-His-Ala-NH2; configuration not given here) | > 100 | > 100 | > 100 | > 100 | > 100 | > 100 | > 100 | > 100 | – | > 100 | – | – | – | –
COc1cc2c(cc1OC(=O)c1cc3ccccc3[nH]1)N=C[C@@H]1CCCN1C2=O | 5.37 | 3.2 | > 100 | > 100 | – | 8.65 | 6.93 | 1.95 | 0.55 | 0.335 | – | – | – | –
CCOc1cc2c(cc1O)CC[C@@H]1[C@@H]2CC[C@]2(C)C(OS(=O)OC3CC[C@@H]4[C@H]5CCc6cc(O)c(OCC)cc6[C@@H]5CC[C@@]34C)CC[C@@H]12 (some centres not stated) | 13.6 | > 37.7 | > 100 | > 57.3 | > 51.7 | > 34.2 | 24.9 | 13.9 | 6.19 | 3.84 | – | – | – | –
COC(=O)c1c(O)ccc2c1c1c(n2Cc2ccccn2)C(=O)c2ccccc2C1=O | > 100 | > 100 | > 100 | > 100 | – | > 100 | > 100 | > 100 | > 100 | > 100 | – | – | – | –
COc1cccc2c1-c1c(OC)cccc1SS2 | 86.5 | 31.4 | 36 | > 100 | 23.5 | 43.8 | > 100 | 59.2 | 46.4 | 26.5 | – | – | – | –
COC(=O)[C@@H](NC(=O)[C@@H](CC(C)C)N(C)C(=O)[C@@H]1CCCN1C(=O)C(C)O)C(C)OC(=O)CCc1ccc(OC)cc1 (some centres not stated) (H-[ξLac]P[dNMeL][Thr(3ξ)](Propanoyl(3-(4-MeO-Ph)))-OMe) | > 100 | > 100 | > 100 | > 100 | > 100 | > 100 | > 100 | > 100 | > 100 | > 100 | – | – | – | –
COc1ccc(CCNC(=O)CCCCCO)cc1OC | > 100 | > 100 | > 100 | > 100 | – | > 100 | > 100 | > 100 | > 100 | > 100 | – | – | – | –
COc1ccc(N2C(N)=C(C#N)C(C#N)(C#N)C2c2cccc([N+](=O)[O-])c2)cc1 (configuration not stated) | 32.3 | 39.7 | 26.2 | 54.6 | 27.6 | – | 32.4 | 42.5 | 33.2 | 27.4 | – | – | – | –
CN(C)CCCNc1cnc2cc3ccccc3cc2n1 | 58.9 | > 100 | 95.8 | > 100 | 35.7 | > 100 | 45.6 | 82.2 | 44.8 | 45 | – | – | – | –
NNC(=O)CCC(NS(=O)(=O)c1ccc(Cl)cc1)C(=O)NN (configuration not stated) | > 100 | > 100 | > 100 | > 100 | > 100 | > 100 | > 100 | – | > 100 | > 100 | – | – | – | –
COc1ccc(NCc2cnc3nc(N)nc(N)c3c2C)cc1 | > 100 | > 100 | > 89.5 | > 100 | > 100 | > 100 | > 100 | > 100 | > 100 | > 100 | – | – | – | –

SMILES | TGI (BT-549 breast) [µM] | TGI (EKVX NSCLC) [µM] | TGI (HOP-92 NSCLC) [µM] | TGI (HS 578T breast) [µM] | TGI (LOX IMVI melanoma) [µM] | TGI (NCI-H460 lung) [µM] | TGI (PC-3 prostate) [µM] | TGI (RPMI-8226 leukemia) [µM] | TGI (SK-MEL-2 melanoma) [µM] | TGI (SK-MEL-5 melanoma) [µM] | GI50 (HOP-92 NSCLC) [nM] | GI50 (HS 578T breast) [µM] | GI50 (LOX IMVI melanoma) [µM] | GI50 (RPMI-8226 leukemia) [µM]
O=C(O)CN(CC(=O)O)Cc1ccn(-c2cccc(-n3ccc(CN(CC(=O)O)CC(=O)O)n3)n2)n1 | > 100 | > 100 | > 100 | > 100 | – | > 100 | > 100 | > 100 | > 100 | > 100 | – | – | – | –
O=c1oc2c/c(=C\c3ccccc3)c(=O)c3cccc1c3-2 | 51.6 | > 100 | 41.6 | 73.2 | 40.7 | > 100 | > 100 | 88.1 | – | – | – | – | – | –
COc1ccc2oc(=Nc3ccc(F)cc3)c(C(N)=O)cc2c1 | > 100 | > 100 | 95.5 | > 100 | > 100 | > 100 | > 100 | > 100 | 74.7 | > 100 | – | – | – | –
CNC(=O)c1ccccc1[S+]1c2cccc3cccc(c23)C(=O)N1C (configuration not stated) | > 100 | > 100 | > 100 | > 100 | > 100 | – | > 100 | > 100 | > 100 | > 100 | – | – | – | –
Cc1c(O)c(=O)ccn1CCc1c[nH]c2ccccc12 | > 100 | 91.7 | 46.5 | 54 | 17 | 19.4 | > 100 | 29.8 | – | 24.1 | – | – | – | –
O=[N+]([O-])c1ccc2nc(/C=C(\O)c3ccccc3)c(/C=C(\O)c3ccccc3)nc2c1 | 62.1 | > 100 | 5.63 | 48.6 | 21.3 | > 81 | > 100 | 61.7 | > 82.2 | > 39.2 | 195 | 6.83 | 7.18 | 5.21
NC(=O)C[C@H](NC(=O)C1(NC(=O)[C@H](Cc2ccc(CP(=O)(O)O)cc2)NC(=O)C(=O)O)CCCCC1)C(=O)NCCCc1cccc2ccccc12 | > 10 | > 10 | > 10 | > 10 | > 10 | > 10 | > 10 | > 10 | > 10 | > 10 | – | – | – | –
COP(=O)(OC)c1ccc(NCc2cc(O)ccc2O)cc1 | 36.9 | 56.4 | 45.5 | > 63.8 | > 75.4 | 45.4 | > 100 | 62.4 | > 87.8 | 47.2 | – | – | – | –
COc1ccc(-c2nnc(CCCCCCCCc3nnc(-c4ccc(OC)cc4)n3N)n2N)cc1 | > 100 | > 100 | > 69.1 | > 100 | > 100 | > 100 | > 100 | > 100 | > 100 | > 100 | – | – | – | –
Cc1cc2c(cc1-c1cc3c(cc1C)C(C(C)C)=C(O)C(=O)/C3=C\Nc1c(C)n(C)n(-c3ccccc3)c1=O)/C(=C/Nc1c(C)n(C)n(-c3ccccc3)c1=O)C(=O)C(O)=C2C(C)C | > 100 | > 100 | > 100 | > 100 | – | > 100 | > 100 | > 100 | > 100 | > 100 | – | – | – | –
CCCCCC(O)(CCCCC)CCCCCCCCC1=C(O)c2ccccc2C(=O)C1=O | 39.6 | 60.1 | 33.6 | 54.5 | 18 | 17.7 | 24.6 | 11.5 | 27.7 | 14.5 | – | – | – | –
COc1cc(C2c3cc4c(cc3OC3(OC)COC(=O)C23)OCO4)cc(OC)c1OC (configuration not stated) | > 100 | > 72.1 | > 100 | > 100 | 23.4 | > 67.9 | > 44.9 | – | > 40.9 | 7.46 | – | – | – | –
COc1ccc(/C=N\NC(=O)Nc2cccc3ccccc23)cc1 | > 100 | 95.2 | 42.1 | 61.2 | > 100 | 40.2 | > 100 | > 100 | 43.7 | > 100 | – | – | – | –
CCCC(=O)Nc1cc(/C=C/C(=O)N2CC(CCl)c3c2cc([N+](=O)[O-])c2ccccc32)n(C)c1 (configuration not stated) | > 100 | – | > 100 | > 100 | – | > 100 | > 100 | > 100 | > 100 | > 100 | – | – | – | –
CN(C)CCNC(=O)c1cccc2[nH]c(-c3ccncc3)nc12 | 34.8 | 73.7 | 20.7 | 29.6 | 1.81 | 8.22 | > 24.3 | 21.5 | 11.5 | 7.27 | – | – | – | –
CCCCCCCCCCCCCCCCCCOc1ccc(/C=C/C2=[N+](CCCl)CCO2)cc1 | > 100 | > 100 | > 100 | > 100 | > 100 | > 100 | > 100 | > 100 | > 100 | > 100 | – | – | – | –
